The values below come from patent US20260200982A1, “HER RECEPTOR DERIVED PEPTIDES AND METHODS OF USE THEREOF” (Ramot at Tel-Aviv University Ltd., priority 2022, published 2026).

Read-outs that look alike come from different tables or passages of the source. Where a SMILES comes first, the peptide text is derived from it. Bridges are numbered along the chain shown (N, C = ends). Primed or numbered codes have the meaning given here. Where no end group is shown, it is not given here. [ ]: non-standard residue; d: D form. The star is where a group is joined. FITC′ = fluorescein isothiocyanate; Myristoyl = CCCCCCCCCCCCCC(=O)*; S5 = C=CCCC[C@](C)(N)C(=O)O

The subject of experiment [1] is MCF7 breast cancer cells. The format is cell-based, human. The following applies: for MCF7 cell viability: 10 μM peptide, FIGS. 6A-B. The text has this: (§1) Cell lines—Human breast cancer cell lines SKBR3 [Peles E et al. EMBO J. (1993) 12(3):961-71] and MCF7 [Faigenbloom L et al., Mol Syst Biol. (2015) 11(12):845] and human glioblastoma U87 [Goldberg L et al. Cancer Res. (2006) 66(24):11709-17] cell line, as well as Rat-1 fibroblast cells and H-Ras-transformed Rat-1 cells (EJ cells) [Marom M et al. J Biol Chem. (1995) 270(38):22263-70] and human Panc-1 and MIA PaCa-2 pancreatic cell lines (Rak R et al. Oncoscience. 2014 1(1):39-48; Weisz B et al. Oncogene (1999) 18, 2579±2588) were all grown in Dulbecco's modified Eagle's medium (DMEM; Biological Industries, Beithaemek, Israel). Human colorectal cancer cell lines DLD-1 (ATTC Cat No. CCL-221), HCT-116 (ATTC Cat No. CCL-247) and LNCaP prostate cancer cells were grown in Roswell Park Memorial Institute 1640 (RPMI 1640) medium and McCoy's 5A media, respectively (Sigma-Aldrich). All media were supplemented with antibiotics and 10% heat-inactivated fetal bovine serum (FBS; Gibco). Human breast cell line MCF10A [Bott A et al. Oncotarget. (2017) 8(27):43897-43914] was grown in Dulbeco's Modified Eagle's Medium/Nutrient Mixture F-12 HAM medium (DMEM F-12 HAM; Sigma-Aldrich), supplemented with antibiotics, 5% inactivated horse serum (HS; Invitrogen), 2 mM L-glutamine (Biological Industries, Beithaemek, Israel), 0.1 μg/ml cholera toxin (Sigma-Aldrich), 0.5 μg/ml hydrocortisone (Sigma-Aldrich), 10 μg/ml insulin (Biological Industries, Beithaemek, Israel) and 2 ng/ml EGF (R&D Systems). Cells were incubated at 37° C. in 5% CO2 in air, and the medium was changed every 3-4 days. Cells were passaged in trypsin/disodium ethylenediaminetetraacetic acid (Biological Industries, Beithaemek, Israel) when confluency reached 70%. One day prior to treatment the cells were plated at ~50% confluency in a medium supplemented with 10% FBS or 5% HS, accordingly.
(§2) Methylene blue viability assay—Cells were plated in 96-wells plates at cell densities of 1.5×10^3 (EJ, DLD-1), 3×10^3 (Rat-1, HCT-116, U87), 5×10^3 (SKBR3, MCF7) and 6×10^3 (MCF10A) cells/well. […] Cell number determination was performed as described previously. IC-50 values were calculated using a non-linear regression model (logarithmic inhibitor vs. normalized response-variable slope) with the GraphPad Prism 6 software.

The subject of experiment [2] is SKBR3 breast cancer cells. The format is cell-based, human.
Source text: as §1, §2

For experiment [3], the system named is DLD-1 colon cancer cells. Type of experiment: cell-based, human. The following applies: 72 h.
Source text: as §1
(§3) Methylene blue viability assay—Cells were plated in 96-wells plates at cell densities of 1.5×10^3 (EJ, DLD-1), 3×10^3 (Rat-1, HCT-116, U87), 5×10^3 (SKBR3, MCF7) and 6×10^3 (MCF10A) cells/well. On the following day, cells were treated as indicated, and grown for 72 hours. Cell number determination was performed as described previously. IC-50 values were calculated using a non-linear regression model (logarithmic inhibitor vs. normalized response-variable slope) with the GraphPad Prism 6 software.

Experiment [4] concerns HCT-116 colon cancer cells. Type of experiment: cell-based, human. The settings on record: 72 h.
Source text: as §1, §3

For experiment [5], the system named is Panc-1 pancreatic cancer cells. The format is cell-based, human. The following applies: 72 h.
Source text: as §1, §3

For experiment [6], the system named is U87 glioma cells. The format is cell-based, human. The following applies: 72 h.
Source text: as §1, §3

In experiment [7] the test system is non-cancerous (MCF10A) breast cell line. The experiment is described as follows: Methylene blue viability assay, MCF10A. The following applies: 72 hours, 10 μM peptide; FIGS. 6A-B. Type of experiment: cell-based, human.
Source text: as §1, §3

Experiment [8] concerns H-Ras-transformed Rat-1 cells (EJ cells). Type of experiment: cell-based. From the text:
Cell lines—Human breast cancer cell lines SKBR3 [Peles E et al. EMBO J. (1993) 12(3):961-71] and MCF7 [Faigenbloom L et al., Mol Syst Biol. (2015) 11(12):845] and human glioblastoma U87 [Goldberg L et al. Cancer Res. (2006) 66(24):11709-17] cell line, as well as Rat-1 fibroblast cells and H-Ras-transformed Rat-1 cells (EJ cells) [Marom M et al. J Biol Chem. (1995) 270(38):22263-70] and human Panc-1 and MIA PaCa-2 pancreatic cell lines (Rak R et al. Oncoscience. 2014 1(1):39-48; Weisz B et al. Oncogene (1999) 18, 2579±2588) were all grown in Dulbecco's modified Eagle's medium (DMEM; Biological Industries, Beithaemek, Israel). Human colorectal cancer cell lines DLD-1 (ATTC Cat No. CCL-221), HCT-116 (ATTC Cat No. CCL-247) and LNCaP prostate cancer cells were grown in Roswell Park Memorial Institute 1640 (RPMI 1640) medium and McCoy's 5A media, respectively (Sigma-Aldrich). All media were supplemented with antibiotics and 10% heat-inactivated fetal bovine serum (FBS; Gibco). Human breast cell line MCF10A [Bott A et al. Oncotarget. […]
Methylene blue viability assay—Cells were plated in 96-wells plates at cell densities of 1.5×10^3 (EJ, DLD-1), 3×10^3 (Rat-1, HCT-116, U87), 5×10^3 (SKBR3, MCF7) and 6×10^3 (MCF10A) cells/well. […] IC-50 values were calculated using a non-linear regression model (logarithmic inhibitor vs. normalized response-variable slope) with the GraphPad Prism 6 software.

For experiment [9], the system named is DLD-1 cells. Kind of experiment: Colony formation assay, DLD-1. Type of experiment: cell-based, human. The settings on record: 20 μM, 72 hours, FIG. 12. The method, then:
Colony formation assay—Cells were plated onto 12-well plate (6×10^4 cells/well) and treated with either PBS or myr-NLS at the IC50 concentration for 3 days. Cells were collected and replated in 10-cm plates (at 3 dilutions of 1:10, 1:20 and 1:40). After 7-14 days when visible and yet separated colonies were formed, the cells were fixed with 0.1% acetic acid in PBS, and stained with 0.4% crystal violet in 0.1% acetic acid. Total colonies area was calculated using the ImageJ program.
In addition, a colony formation assay was conducted to further examine the anti-tumor effect of the myr-NLS (SEQ ID NO: 5), myr-NLS2 (SEQ ID NO: 15) and myr-NLS4 (SEQ ID NO: 17) peptides. To this end, DLD-1 cells were treated or untreated for 72 hours with 20 μM of the myr-peptides. Cells were then seeded at the same dilutions in new plates until colonies were formed.

[10] abbreviates: 30 μM peptide for 48 hours, FIG. 5A.

As usually defined, the IC50 is the point on the concentration scale where inhibition reaches its midpoint. Higher therefore signals a need for much substance. `CCCCCCCCCCCCCC(=O)N[C@@H](CCCNC(=N)N)C(=O)N[C@@H](CCCNC(=N)N)C(=O)N[C@@H](CCCNC(=N)N)C(=O)N[C@@H](Cc1c[nH]cn1)C(=O)N[C@H](C(=O)N[C@@]1(C)CCCC=CCCC[C@@](C)(C(=O)N[C@@H](CC(C)C)C(=O)N[C@@H](CCCNC(=N)N)C(=O)N[C@@H](CCCNC(=N)N)C(=O)N[C@@H](CC(C)C)C(=O)N[C@@H](CC(C)C)C(=O)O)NC(=O)[C@H](CCCNC(=N)N)NC(=O)[C@H](CCCCN)NC(=O)[C@H](CCCNC(=N)N)NC1=O)[C@@H](C)CC` [mN6-10, Myr-RRRHI(S5)RKR(S5)LRRLL] (Myristoyl-RRRHI[S5]RKR[S5]LRRLL-OH; staple 6-10; C-terminus assumed): the 50% inhibitory concentration (IC50) in experiment [1] was 9.7 µM; in experiment [2] (72 h) it was 18.9 µM; in experiment [3], 9.4 µM; in experiment [4] it was 13.3 µM; in [5], 7.6 µM; in experiment [6], 15.9 µM. The compound also yielded an IC50 in [8] of 11.6 µM. The “viability of MCF7 breast cancer cells” value in experiment [1] (setting [10]) was “even more efficient than the myr-NLS peptide”. Besides, the MCF7 cell viability result in [1] (72 hours) was “decreased MCF7 cell viability”. Also, the “viability of SKBR3 breast cancer cells” value in experiment [2] (setting [10]) was “even more efficient than the myr-NLS peptide”. Besides, in experiment [7], the “viability of non-cancerous MCF10 breast cells” value is given as “had no effect”.
“Myr-KRRQQKIRKYTMRRLL-OH (Myristoyl-KRRQQKIRKYTMRRLL-OH; SMILES CCCCCCCCCCCCCC(=O)N[C@@H](CCCCN)C(=O)N[C@@H](CCCNC(=N)N)C(=O)N[C@@H](CCCNC(=N)N)C(=O)N[C@@H](CCC(N)=O)C(=O)N[C@@H](CCC(N)=O)C(=O)N[C@@H](CCCCN)C(=O)N[C@H](C(=O)N[C@@H](CCCNC(=N)N)C(=O)N[C@@H](CCCCN)C(=O)N[C@@H](Cc1ccc(O)cc1)C(=O)N[C@H](C(=O)N[C@@H](CCSC)C(=O)N[C@@H](CCCNC(=N)N)C(=O)N[C@@H](CCCNC(=N)N)C(=O)N[C@@H](CC(C)C)C(=O)N[C@@H](CC(C)C)C(=O)O)[C@@H](C)O)[C@@H](C)CC) [myr-NLS2]”: the “colony formation (total colonies area)” value in experiment [9] was “fewer and smaller colonies”.
Take “Myr-RRRHIVR(S5)RTL(S5)RLL (Myristoyl-RRRHIVR[S5]RTL[S5]RLL; staple 8-12; not fully specified; printed as Myr-RRRHIVR(S5)RTL(S5)RLL) [mN8-12]”: the MCF7 cell viability entry in experiment [1] (72 hours) is reported as “decreased viability”. Moreover, in experiment [7], the “viability of non-cancerous MCF10 breast cells” value is on record as “decreased viability”.
For the compound “Myr-RRRHIVRK(FITC)RTLRRLL (Myristoyl-RRRHIVRK(FITC′)RTLRRLL) [myr-NLS-FITC]”, the “effect of FITC-conjugation on cell viability activity compared to myr-NLS” value in experiment [1] (MCF7, 72 hours, FIG. 4E) is “did not affect myr-NLS activity”.
In the case of “Myr-RRRHIVRKRT(S5)RRL(S5) (Myristoyl-RRRHIVRKRT[S5]RRL[S5]; staple 11-15) [mN11-15]”, the MCF7 cell viability entry in experiment [1] (72 hours) is on record as “decreased MCF7 cell viability”. The “viability of non-cancerous MCF10 breast cells” value in experiment [7] is reported as “had no effect”.
Consider RRRRRRRRHIVRKRTLRRLL (R-NLS peptide), for which the “viability of SKBR3 breast cancer cells” value in [2] (80 μM peptide for 72 hours, FIG. 4A) is given as “significantly reduced viability”.
